Calls of active or inactive are those of the source.
Columns and labels:
[1] = cytotoxicity in MITF-independent A375 cells – cell-based, CellTiter-Glo luminescence, dry powder, set 4, counter-screen for MITF inhibitor project, dose response (AID 624364); type: functional; conditions: A-375;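 further: A375 melanoma cells are MITF independent so this is a counter screen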
[2] = viability loss in MITF-independent A375 cells – cell-based, CellTiter-Glo luminescence, dry powder, set 2, counter-screen for MITF inhibitor project, dose response (AID 624489); type: functional; conditions: A-375;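 further: actives are compounds lowering A375 viability meaning general cytotoxicity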
[3] = cells; type: functional, cell-based
[4] = cells; type: functional, cell-based; remark: listed apart in the source
[5] = target: Cytochrome P450 2C9 (Homo sapiens, UniProt P11712)
[6] = target: T1, Trace amine-associated receptor 1 (Homo sapiens, UniProt Q96RJ0); test: Counterscreen for agonists of the human trace amine associated receptor 1 (hTAAR1): Fluorescence-based cell-based high throughput dose response assay to identify hTAAR1 agonist that also desensitize TAAR1 receptor response.; type: functional
T1 sequence (Q96RJ0 whole entry): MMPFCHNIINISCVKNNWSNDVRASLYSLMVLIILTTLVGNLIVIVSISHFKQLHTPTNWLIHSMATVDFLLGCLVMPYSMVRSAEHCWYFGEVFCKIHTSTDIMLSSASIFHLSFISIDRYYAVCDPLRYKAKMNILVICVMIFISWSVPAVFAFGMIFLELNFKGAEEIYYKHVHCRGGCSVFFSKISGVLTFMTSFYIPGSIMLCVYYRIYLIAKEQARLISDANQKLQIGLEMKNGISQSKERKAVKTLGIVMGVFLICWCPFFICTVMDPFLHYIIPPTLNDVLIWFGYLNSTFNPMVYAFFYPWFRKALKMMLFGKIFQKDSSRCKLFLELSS

[7] = target: Cytochrome P450 2C19 (Homo sapiens, UniProt P33261); test: Cytochrome panel assay with activity outcomes. Panel member name: p450-cyp2c19 Compounds with AC50 equal or less than 10 uM are considered active; type: functional; conditions: read-out: AC50
[8] = target: T1, Trace amine-associated receptor 1; test: Fluorescence-based cell-based high throughput dose response assay to identify agonists of the human trace amine associated receptor 1 (TAAR1).; type: functional
[9] = cells
[10] = blockers of bursicon-stimulated LGR2 cAMP reporter – cell-based, HEK293, CRE-luciferase reporter, cherry pick, set 2, dose response (AID 743343); type: functional;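 further: transfected cells were stimulated with diluted bursicon conditioned medium after compound addition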
[11] = toxicity toward HepG2 liver cells – cell-based, plate reader, cherry-pick, antagonist series, cytotoxicity control, dose response (AID 743416); type: functional
[12] = A549 cell cytotoxicity, dose response, cytotoxicity control, plate reader, cherry-pick, antagonist series (AID 743412); type: functional, cell-based
[13] = target: T2, Oxysterols receptor LXR-beta (Homo sapiens, UniProt P55055); type: functional, cell-based;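 further: Cell-based luminescence dose-response assay of agonist activity at LXR, run as a confirmatory counterscreen to a daf-12 agonist screen; HEK293 cells with Gal4-LXR fusion and GAL4-driven luciferase reporter; agonist potency from rising luciferase signal of a Gal4-LXR reporter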
T2 sequence (P55055 whole entry): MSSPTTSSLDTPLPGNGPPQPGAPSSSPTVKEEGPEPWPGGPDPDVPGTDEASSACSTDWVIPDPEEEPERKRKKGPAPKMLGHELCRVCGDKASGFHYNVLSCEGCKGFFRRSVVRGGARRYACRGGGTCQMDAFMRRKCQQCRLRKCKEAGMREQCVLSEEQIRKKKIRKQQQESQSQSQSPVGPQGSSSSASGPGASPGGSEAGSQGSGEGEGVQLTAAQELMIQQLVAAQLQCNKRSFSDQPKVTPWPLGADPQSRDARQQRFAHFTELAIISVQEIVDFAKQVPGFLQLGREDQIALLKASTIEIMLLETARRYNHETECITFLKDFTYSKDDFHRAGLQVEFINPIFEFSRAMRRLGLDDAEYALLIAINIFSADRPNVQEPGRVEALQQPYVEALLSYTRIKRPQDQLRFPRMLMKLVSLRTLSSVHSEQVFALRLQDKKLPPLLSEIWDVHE

[14] = blockade of melanocortin 4 receptor signaling – cell-based, plate reader, cherry pick, counter-screen for LGR2 antagonist project, dose response (AID 743444); type: functional;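 further: transfected HEK 293 cells stimulated with alpha-MSH peptide; potency of inhibitors of the alpha-MSH evoked signal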
[15] = viability loss in HEK293 cells – cell-based, plate reader, cherry-picked samples, cytotoxicity control, dose response (AID 743446); type: functional
[16] = target: Major prion protein (Homo sapiens, UniProt P04156); type: functional, cell-based
[17] = cells; remark: listed apart in the source
[18] = target: T3, Streptokinase A (Streptococcus pyogenes serotype M1, UniProt P10520); test: viability-normalized secreted streptokinase activity reduction – plasminogen activation absorbance, OD405, dose response (AID 1914); type: functional, Streptococcus pyogenes M1 GAS;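 further: secreted streptokinase activity via plasminogen activation per viability signal from cell pellet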
T3 sequence (P10520 whole entry): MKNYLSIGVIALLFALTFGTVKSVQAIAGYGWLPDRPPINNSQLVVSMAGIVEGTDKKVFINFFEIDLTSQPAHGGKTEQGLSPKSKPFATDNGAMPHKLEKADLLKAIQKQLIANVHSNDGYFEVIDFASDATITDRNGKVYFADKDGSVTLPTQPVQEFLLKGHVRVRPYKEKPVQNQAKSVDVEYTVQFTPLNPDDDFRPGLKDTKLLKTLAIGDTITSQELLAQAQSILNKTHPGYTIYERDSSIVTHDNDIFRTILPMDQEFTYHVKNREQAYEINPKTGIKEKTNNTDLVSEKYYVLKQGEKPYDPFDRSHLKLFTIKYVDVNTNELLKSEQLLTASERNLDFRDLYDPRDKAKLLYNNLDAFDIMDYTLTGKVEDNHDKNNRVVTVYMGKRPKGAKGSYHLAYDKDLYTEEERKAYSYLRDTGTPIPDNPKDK

[19] = tested on: Streptococcus sp. 'group A'; test: Streptococcus pyogenes SK(-)GAS viability under kanamycin – luminescence, BacTiterGlo, confirmation, counter-screen for streptokinase expression inhibitor project, dose response (AID 1900); type: functional, organism-based
[20] = tested on: Streptococcus; test: GAS UMAA2166 growth inhibition – luminescence, BacTiterGlo, counter-screen for streptokinase expression inhibitor project, dose response (AID 1915); type: functional, organism-based;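 further: potency for reduction of bacterial viability or growth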
[21] = viability loss of HPDE-C7K cells – cell-based, fluorescence, HTS, primary screen (AID 431); type: functional; conditions: Homo sapiens
[22] = HPDE-C7 pancreatic duct cell viability loss – fluorescence, HTS (AID 430); type: functional, cell-based; conditions: Homo sapiens
[23] = target: T4, Aminopeptidase N (Plasmodium falciparum FcB1/Columbia, UniProt O96935); test: malaria alanyl aminopeptidase activity blockers – biochemical, fluorogenic H-Leu-NHMec substrate, 1536-well (AID 1445); parameters: species or system Plasmodium falciparum 3D7, 3D7
T4 sequence (O96935 whole entry): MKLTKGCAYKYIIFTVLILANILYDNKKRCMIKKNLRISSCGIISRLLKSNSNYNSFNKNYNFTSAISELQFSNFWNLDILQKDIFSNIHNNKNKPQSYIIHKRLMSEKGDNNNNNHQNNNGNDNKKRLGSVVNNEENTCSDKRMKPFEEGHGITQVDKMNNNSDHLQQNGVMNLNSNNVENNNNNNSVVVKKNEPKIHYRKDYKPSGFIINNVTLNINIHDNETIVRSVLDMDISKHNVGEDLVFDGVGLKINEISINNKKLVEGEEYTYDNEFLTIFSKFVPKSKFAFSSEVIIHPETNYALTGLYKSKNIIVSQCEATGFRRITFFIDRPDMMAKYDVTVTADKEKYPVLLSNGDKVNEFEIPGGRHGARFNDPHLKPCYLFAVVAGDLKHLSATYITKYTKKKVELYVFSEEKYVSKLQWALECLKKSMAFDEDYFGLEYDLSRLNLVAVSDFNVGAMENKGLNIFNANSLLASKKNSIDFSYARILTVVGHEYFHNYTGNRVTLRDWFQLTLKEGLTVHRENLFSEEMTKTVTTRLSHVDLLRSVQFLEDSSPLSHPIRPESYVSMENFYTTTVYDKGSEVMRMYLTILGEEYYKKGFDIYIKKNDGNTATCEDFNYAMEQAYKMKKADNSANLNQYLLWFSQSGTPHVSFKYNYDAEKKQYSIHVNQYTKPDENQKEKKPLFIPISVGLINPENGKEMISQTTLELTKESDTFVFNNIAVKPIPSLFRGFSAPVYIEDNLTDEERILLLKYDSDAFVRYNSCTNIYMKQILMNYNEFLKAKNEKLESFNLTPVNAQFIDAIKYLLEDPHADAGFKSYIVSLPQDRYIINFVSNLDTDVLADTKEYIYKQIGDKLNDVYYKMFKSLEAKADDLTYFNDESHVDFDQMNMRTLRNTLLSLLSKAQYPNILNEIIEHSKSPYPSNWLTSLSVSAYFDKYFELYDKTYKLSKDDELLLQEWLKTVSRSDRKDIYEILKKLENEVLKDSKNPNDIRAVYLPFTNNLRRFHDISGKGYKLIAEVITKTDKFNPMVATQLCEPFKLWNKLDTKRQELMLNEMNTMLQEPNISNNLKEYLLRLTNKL

[24] = target: fMet-Leu-Phe receptor (Homo sapiens, UniProt P21462); test: formyl peptide receptor binders – dose response (AID 519); type: functional
[25] = target: Albumin (Bos taurus, UniProt P02769); test: Counterscreen for inhibitors of T-cell receptor (TCR)-CD3 interaction: Fluorescence-based biochemical high throughput dose response assay to identify inhibitors of T-cell receptor (TCR)-CD3 interaction using a TAMRA-labeled BSA probe.; type: functional
[26] = Trypanosoma cruzi growth suppression in host cells – NIH3T3 host cells, beta-gal luminescence, confirmation (AID 2044); type: functional, cell-based;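 further: intracellular parasites grown in NIH/3T3 mouse fibroblasts as host cells; luminescent beta-galactosidase reporter signal from transgenic T. cruzi replicating inside host cells; inhibitors lower the luminescence signal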
[27] = target: Induced myeloid leukemia cell differentiation protein Mcl-1 (Homo sapiens, UniProt Q07820); type: functional
[28] = NIH3T3 cell viability loss – ATP luminescence, mouse fibroblasts, counter-screen, dose response (AID 2010); type: functional, cell-based;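 further: cells exposed to compound for about 90 hours before reading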

What does the source list for O=C(NC1=C(c2ccccc2)C(=O)c2ccccc2C1=O)c1ccco1?
AC50 [1]: 21.3 µM (active); AC50 [2]: 14.2 µM (active)

Which results are given for CC1CN(C(NC(=O)C(C)(C)C)C(Cl)(Cl)Cl)CC(C)O1 (centres undefined)?
IC50 [3]: > 29.9 µM (inactive); EC50 [4]: > 29.9 µM (inactive); AC50 [5]: 14.1 µM (inconclusive); IC50 [6]: 21.6 µM (inactive); AC50 [7]: 8.91 µM (inconclusive); EC50 [8]: 3.82 µM (active)

Which results are given for COc1ccc(C(=O)Nc2nnc(-c3cccs3)s2)cc1?
EC50 [9]: > 67.5 µM (inactive); AC50 [10]: 5.12 µM (active); AC50 [11]: 45.2 µM (active); AC50 [12]: 44.5 µM (active); EC50 [13]: > 67.5 µM (inactive); AC50 [14]: 3.17 µM (active); AC50 [15]: > 52 µM (inactive)

What does the source list for O=C(NC1=C(c2ccccc2)C(=O)c2ccccc2C1=O)c1ccc(Br)cc1?
AC50 [1]: 45.8 µM (active); AC50 [2]: 22.9 µM (active)

With Cc1cc(NC(=O)CSc2nc(CCC3CCCC3)nc3ccccc23)no1 as the compound, how does the IC50 [16] read?
The IC50 was 9.42 µM (active).

What about the IC50 [17] of the same compound?
The IC50 was > 138 µM (inactive).

Which results are given for CCCCCNC(=O)c1ccc2c(=O)[nH]c3c(C(=O)NCC4CCCO4)sc(=S)n3c2c1 (centres undefined)?
EC50 [18]: 21.1 µM (inconclusive); EC50 [19]: 0.944 µM (active); EC50 [20]: > 150 µM (not active); EC50 [21]: > 20 µM (not active); EC50 [22]: 17.6 µM (active); IC50 [23]: 37 µM (active); Ki [24]: 40.7 µM (inactive)

Which Ki [24] does the source give for CCCC(=O)Nc1c2c(nn1-c1ccc(OC)cc1)C[S+]([O-])C2 (centres undefined) here?
The Ki was > 66.7 µM (inactive).

With O=C(Cc1ccccc1)NNC(=S)NC(=O)c1cccnc1 as the compound, how does the IC50 [25] read?
Its IC50 is > 94.1 µM (inactive).

Which IC50 [16] does the source give for CCc1nc(SCC(=O)NNC(=O)C(C)C)c2ccccc2n1 here?
Its IC50 is 1.93 µM (active).

What about the IC50 [17] of the same compound?
Its IC50 is > 138 µM (inactive).

What does the source list for CCc1nnc(S)n1/N=C/c1cc(OC)cc([N+](=O)[O-])c1O?
IC50 [25]: > 94.1 µM (inactive); EC50 [26]: 0.815 µM (active); IC50 [27]: 12.4 µM (active); EC50 [28]: > 60 µM (not active)

— ChEMBL document CHEMBL1201862, “PubChem BioAssay data set” (2004)
